Source: US20050148646A1, “Dicationic triaryl analogs as anti-protozoan agents” (priority 2003, published 2005)
Structures can show the parent of a compound that is named as a salt. Where two headings read alike, the source gives them in different places.

Legend:
[1] = test system: Plasmodium falciparum (P.f.); assay: In vitro activity vs. P. falciparum; format: cell-based
[2] = test system: Trypanosoma brucei rhodesiense (T.b.r.); assay: In vitro activity vs. T. b. rhodesiense; format: cell-based
[3] = test system: virulent STIP900 strain of T.b.r.; assay: Mouse model of T.b.r. infection; format: in vivo
[4] = read-out: IC-50 values versus Plasmodium falciparum (p.f.)
[5] = read-out: IC-50 values versus Trypanosoma brucei rhodesiense (T.b.r.)

Structure (SMILES)	melting point	IC50 ([1]; Table 1, read-out: P.f. IC50)	IC50 ([2]; Table 1, read-out: T.b.r. IC50)	further results
CC(=O)O.Cc1cc(C(=N)N)ccc1-c1cccc(-c2nc3cc(C(=N)N)ccc3[nH]2)c1 [Compound 28, 2-(4′-carbamimidoyl-2′-methyl-biphenyl-3-yl)-1H-benzimidazole-5-carboxamidine acetate salt]	201 to 203 °C	0.055 µM	0.023 µM	
Cc1cc(C(=N)NO)ccc1-c1ccc(-c2nc3cc(C(=N)NO)ccc3[nH]2)cc1 [Compound 51, N-hydroxy-2-[4′-(N-hydroxycarbamimidoyl)-2′-methyl-biphenyl-4-yl]-1H-benzimidazole-5-carboxamidine]	300 to 302 °C			
N=C(N)c1ccc(-c2ccc(O)c(-c3nc4cc(C(=N)N)ccc4[nH]3)c2)cc1 [Compound 4, 2-(4′-carbamimidoyl-4-hydroxy-biphenyl-3-yl)-1H-benzimidazole-5-carboxamidine acetate salt]		0.0021 µM	0.027 µM	IC50 [1, 4]: < 0.003 µM
CC(=O)O.N=C(N)c1ccc2[nH]c(-c3ccc(-c4ccc(C(=N)N)c(F)c4)cc3)nc2c1 [Compound 32, 2-(4′-carbamimidoyl-3′-fluoro-biphenyl-4-yl)-1H-benzimidazole-5-carboxamidine acetate salt]	210 to 212 °C (dec.)			IC50 ([1]; Table 2, read-out: P.f. IC50): 0.0013 µM; IC50 [1, 4]: < 0.003 µM; IC50 ([2]; Table 2, read-out: T.b.r. IC50): 0.035 µM
CC(=O)O.COc1ccc(-c2ccc(C(=N)N)cn2)cc1-c1nc2cc(C(=N)N)ccc2[nH]1 [Compound 36, 2-[5-(5-carbamimidoyl-pyridin-2-yl)-2-methoxyphenyl]-1H-benzimidazole-5-carboxamidine acetate salt]	231 to 232 °C (dec.)	0.364 µM	0.014 µM	IC50 [2, 5]: < 0.02 µM
N=C(NO)c1ccc(-c2ccc(-c3nc4cc(C(=N)NO)ccc4[nH]3)cc2)nc1 [Compound 43, N-hydroxy-2-{4-[5-(N-hydroxycarbamimidoyl)-pyridin-2-yl]-phenyl}-1H-benzimidazole-5-carboxamidine]	305 to 308 °C (dec.)			
COc1cc(-c2ccc(C(=N)NO)cc2)cc(-c2nc3cc(C(=N)NO)ccc3[nH]2)c1O [Compound 11, N-hydroxy-2-[4-hydroxy-4′-(N-hydroxycarbamimidoyl)-5-methoxy-biphenyl-3-yl]-1H-benzimidazole-5-carboxamidine]	319 to 321 °C			
CC(=O)O.N=C(N)c1ccc(-c2ccc(-c3nc4cc(C(=N)N)ccc4[nH]3)cc2)c(O)c1 [Compound 48, 2-(4′-carbamimidoyl-2′-hydroxy-biphenyl-4-yl)-1H-benzimidazole-5-carboxamidine acetate salt]	220 to 222 °C			IC50 ([1]; Table 2, read-out: P.f. IC50): 0.0191 µM; IC50 ([2]; Table 2, read-out: T.b.r. IC50): 0.027 µM
N=C(N)c1ccc(-c2ccc(-c3nc4ccc(C(=N)N)cc4[nH]3)cc2)cc1 [Compound 56]				IC50 ([1]; Table 2, read-out: P.f. IC50): 0.0005 µM; IC50 [1, 4]: < 0.003 µM; IC50 ([2]; Table 2, read-out: T.b.r. IC50): 0.0077 µM; IC50 [2, 5]: < 0.02 µM
CC(=O)O.COc1ccc(-c2ccc(C(=N)N)cc2)cc1-c1nc2cc(C(=N)N)ccc2[nH]1 [Compound 20, 2-(4′-carbamimidoyl-4-methoxy-biphenyl-3-yl)-1H-benzimidazole-5-carboxamidine acetate salt]	220 to 221 °C	0.04 µM	0.053 µM	
CC(=O)O.N=C(N)c1ccc(-c2cccc(-c3nc4cc(C(=N)N)ccc4[nH]3)c2)nc1 [Compound 40, 2-[3-(5-Carbamimidoyl-pyridin-2-yl)-phenyl]-1H-benzimidazole-5-carboxamidine acetate salt]	198 to 200 °C (dec.)	0.096 µM	0.015 µM	cure of the virulent STIP900 strain of T.b.r. in a mouse model [3]: cure; IC50 [2, 5]: < 0.02 µM
CC(=O)O.Cc1cc(C(=N)N)ccc1-c1ccc(-c2nc3cc(C(=N)N)ccc3[nH]2)cc1 [Compound 52, 2-(4′-carbamimidoyl-2′-methylbiphenyl-4-yl)-1H-benzimidazole-5-carboxamidine acetate salt]	193 to 195 °C			IC50 ([2]; Table 2, read-out: T.b.r. IC50): 0.006 µM; IC50 [2, 5]: < 0.02 µM
CC(=O)O.N=C(N)c1cccc(-c2ccc(O)c(-c3nc4cc(C(=N)N)ccc4[nH]3)c2)c1 [Compound 8, 2-(3′-carbamimidoyl-4-hydroxy-biphenyl-3-yl)-1H-benzimidazole-5-carboxamidine acetate salt]	208 to 209 °C (dec.)	0.034 µM	0.213 µM	
N=C(NO)c1ccc(-c2cccc(-c3nc4cc(C(=N)NO)ccc4[nH]3)c2)cc1 [Compound 23, N-hydroxy-2-[4′-(N-hydroxycarbamimidoyl)-biphenyl-3-yl]-1H-benzimidazole-5-carboxamidine]	317 to 319 °C			
CC(=O)O.N=C(N)c1ccc(-c2cccc(-c3nc4cc(C(=N)N)ccc4[nH]3)c2O)cc1 [Compound 16, 2-(4′-carbamimidoyl-2-hydroxy-biphenyl-3-yl)-1H-benzimidazole-5-carboxamidine acetate salt]	228 to 229.5 °C (dec.)	0.131 µM	0.017 µM	cure of the virulent STIP900 strain of T.b.r. in a mouse model [3]: cure; IC50 [2, 5]: < 0.02 µM
N=C(NO)c1ccc(-c2cccc(-c3nc4cc(C(=N)NO)ccc4[nH]3)c2)nc1 [Compound 39, N-hydroxy-2-{3-[5-(N-hydroxycarbamimidoyl)-pyridin-2-yl]-phenyl}-1H-benzimidazole-5-carboxamidine]	295 to 297 °C (dec.)			
N=C(NO)c1ccc(-c2ccc(-c3nc4cc(C(=N)NO)ccc4[nH]3)cc2)c(OCc2ccccc2)c1 [Compound 47, 2-[2′-benzyloxy-4′-(N-hydroxycarbamimidoyl)-biphenyl-4-yl]-N-hydroxy-1H-benzimidazole-5-carboxamidine]	250 to 253 °C (dec.)			
N=C(NO)c1ccc(-c2cccc(-c3nc4cc(C(=N)NO)ccc4[nH]3)c2O)cc1 [Compound 15, N-hydroxy-2-[2-hydroxy-4′-(N-hydroxycarbamimidoyl)-biphenyl-3-yl]-1H-benzimidazole-5-carboxamidine]	322 to 325 °C (dec.)			
CC(=O)O.COc1cc(-c2ccc(C(=N)N)cc2)cc(-c2nc3cc(C(=N)N)ccc3[nH]2)c1O [Compound 12, 2-(4′-carbamimidoyl-4-hydroxy-5-methoxy-biphenyl-3-yl)-1H-benzimidazole-5-carboxamidine acetate salt]	230 to 231 °C (dec.)	0.131 µM	0.031 µM	
N=C(NO)c1ccc(-c2ccc(-c3nc4cc(C(=N)NO)ccc4[nH]3)c(F)c2)cc1 [Compound 31, 2-[3-fluoro-4′-(N-hydroxycarbamimidoyl)-biphenyl-4-yl]-N-hydroxy-1H-benzimidazole-5-carboxamidine]	281 to 283 °C (dec.)			
CC(=O)O.N=C(N)c1ccc(-c2ccc(-c3nc4cc(C(=N)N)ccc4[nH]3)cc2)nc1 [Compound 44, 2-[4-(5-carbamimidoyl-pyridin-2-yl)-phenyl]-1H-benzimidazole-5-carboxamidine acetate salt]	240 to 241 °C			IC50 ([1]; Table 2, read-out: P.f. IC50): 0.007 µM; IC50 ([2]; Table 2, read-out: T.b.r. IC50): 0.041 µM
Cc1cc(C(=N)NO)ccc1-c1cccc(-c2nc3cc(C(=N)NO)ccc3[nH]2)c1 [Compound 27, N-hydroxy-2-[4′-(N-hydroxycarbamimidoyl)-2′-methyl-biphenyl-3-yl]-1H-benzimidazole-5-carboxamidine]	295 to 297 °C (dec.)			
N=C(NO)c1cccc(-c2ccc(O)c(-c3nc4cc(C(=N)NO)ccc4[nH]3)c2)c1 [Compound 7, N-hydroxy-2-[4-hydroxy-3′-(N-hydroxycarbamimidoyl)-biphenyl-3-yl]-1H-benzimidazole-5-carboxamidine]	352 to 355 °C			
COc1ccc(-c2ccc(C(=N)NO)cc2)cc1-c1nc2cc(C(=N)NO)ccc2[nH]1 [Compound 19, N-hydroxy-2-[4′-(N-hydroxycarbamimidoyl)-4-methoxy-biphenyl-3-yl]-1H-benzimidazole-5-carboxamidine]	> 340 °C			
N=C(N)c1ccc(-c2cccc(-c3nc4cc(C(=N)N)ccc4[nH]3)c2)cc1 [Compound 24, 2-(4′-carbamimidoyl-biphenyl-3-yl)-1H-benzimidazole-5-carboxamidine acetate salt]		0.0275 µM	0.0044 µM	IC50 [2, 5]: < 0.02 µM
